Measurements reported in patent US20260324636A1, “COMPOSITION FOR PROVIDING PLANT WITH STRESS RESISTANCE” (KIRIN HOLDINGS KABUSHIKI KAISHA, priority 2022, published 2026).

Tests used:
hop = assay: High-temperature stress resistance in hop (fresh weight of aboveground part), Example 4; format: in vivo, hop (variety: Saaz); conditions: 0.1 mM in agar medium, 30° C. 2 weeks
Experimental: A hop strain (the variety: Saaz) was used as an experimental material. Hop seedlings were purchased from Hananoyakata (http://hananoyakata.shop-pro.jp).
Tissue-cultured seedlings required for evaluation of high temperature response of a hop were prepared in a laboratory. A stem fragment including a node was removed from a Saaz seedling as an explant and incubated with 70 (v/v) % ethanol (FUJIFILM Wako) for 1 minute and with 1 (v/v) % sodium hypochlorite (FUJIFILM Wako) for 5 minutes for sterilization. The explant was washed with sterile water for 1 minute, washing was repeated 3 times, moisture was removed therefrom with a paper towel, the explant was inoculated in an agar medium containing a ½ Murashige and Skoog Plant Salt Mixture, 2 (w/v) % glucose, and 0.2 (w/v) % gellan gum (FUJIFILM Wako), and culture was initiated in an incubator. The incubator was maintained at a temperature of 20° C. for a daily cycle of 16 hours light and 8 hours darkness. Two weeks after the initiation of culture, axillary buds extending from the nodes were cut and inoculated into an agar medium, and the sufficiently grown seedlings were designated as “tissue-cultured seedlings.” Tissue-cultured seedlings were subcultured by inoculating apical buds into fresh agar media every 1.5 months. […]

H1ZAT10 = H1ZAT10 gene expression by real-time PCR, Example 13; format: in vivo, hop; conditions: 1 mM in medium, 20° C. for 2 hours, leaves; read-out: H1ZAT10 expression level, increase vs control
From the text: The materials as used in Example 4 were used.
The medium as used in Example 4 were used.
In order to design primers for the target genes necessary for gene expression analysis by real-time PCR, homologs of Arabidopsis thaliana oxidation stress-responsive genes in hop were searched for. The amino acid sequences of Arabidopsis thaliana ZAT10 (AGI code: AT1G27730) and ZAT12 (AGI code: AT5G59820) were obtained from TAIR (https://www.arabidopsis.org/), and the nucleotide sequences of the gene homologs were obtained using Hopbase (http:/hopbase.cgrb.oregonstate.edu/). […] As the reference gene, the nucleotide sequence of the homolog of Arabidopsis thaliana EF1α (AGI code: AT1G18070) was obtained. The hop homolog genes were designated as H1ZAT10, H1ZAT12, and HIEF1α, respectively.
The leaves in the first and the second nodes from the apical buds of the tissue-cultured seedlings were sampled 1.5 months after the initiation of subculture and inoculated into a liquid medium consisting of a ½ Murashige and Skoog Plant Salt Mixture and 2 (w/v) % glucose. Specifically, a liquid medium was dispensed at 5 ml/well to a 6-well microplate, and 5 hop leaves were mounted thereon. […]
Thereafter, the relative expression levels of the target genes upon N-acetylglutamic acid treatment were calculated by the ΔΔCt method.

HSP17.6C = HSP17.6C gene expression by real-time PCR, Example 5; format: in vivo; conditions: Arabidopsis thaliana; 0.1 mM in medium, 6 hours after application, 22° C.; read-out: HSP17.6C expression level, increase vs control group
Experimental: The materials as used in Example 1 were used.
The method as employed in Example 1 was employed.
N-acetylglutamic acid was applied to Arabidopsis thaliana 7 days after inoculation to the final concentration of 0.1 mM in the medium, followed by incubation for 2 hours or 6 hours. The incubator was maintained at a temperature of 22° C. for a daily cycle of 16 hours light and 8 hours darkness. After incubation, the samples were frozen with liquid nitrogen, and RNA was extracted using the RNeasy Plant Mini Kit (Thermo Fischer Scientific).
cDNA that would be necessary as a real-time PCR template was synthesized from the RNA obtained. 500 ng total RNA was used for each sample, and cDNA was synthesized using the Verso cDNA Synthesis Kit (Thermo Fischer Scientific). The synthesized cDNA was diluted to 5-fold with sterile distilled water and subjected to real-time PCR. For real-time PCR, a reaction solution containing HSFA2 (AGI code: AT2G26150) and HSP17.6C (AGI code: AT1G53540) as the target genes, ACTIN2 (AGI code: AT3G18780) as the reference gene, and TB Green Ex Taq II (TaKaRa) was prepared. PCR was performed with the use of the LightCycler® 480 System (Roche) with the number of amplification cycles of 50. […]
Thereafter, the relative expression level of the target genes upon N-acetylglutamic acid treatment were calculated by the ΔΔCt method using the Cp values obtained by real-time PCR.

SMILES: CC(=O)N[C@@H](CCC(=O)O)C(=O)O [N-acetylglutamic acid]
- fresh weight of the aboveground part, increase relative to the group not subjected to the treatment (hop): 1.8 times
- decrease in the fresh weight of the aboveground part caused by the high-temperature treatment (hop; vs control group): suppressed
- fold induction at 1000 µM (H1ZAT10): 1.7
- fold induction at 100 µM (HSP17.6C): 1.2
